Assay results taken from US12137687B2, “Method for inducing acquired resistance in a plant” (HEINRICH HEINE UNIVERSITAET DUESSELDORF, priority 2017, dated 2024).
Read-outs that look alike come from different tables or passages of the source.

Key:
[1] = system: Pseudomonas syringae pv. tabaci (DSM 1856); experiment: Tobacco (Nicotiana tabacum cv Xanthi) resistance to Pseudomonas tabaci after soil-applied Pip/NHP; details: for disease symptoms (yellowing and wilting) of infiltrated 1° leaves: tobacco 4-leaf stage, 40 ml of 1 mM (40 μmol) via soil 1 d prior to inoculation, 48 h after infection
Method: Plant pots with tobacco at the 4-leaf stage (BBCH growth stage 1004) were supplied with either 40 ml of H2O (mock-treatment; left) or 40 ml of 1 mM Pip or NHP (=40 μmol) 1 d prior to inoculation with a suspension (OD600=0.005, O/N-culture grown at 18° C.) of Pseudomonas tabaci via pressure infiltration. […] Infiltrated 1° leaves from representative plants were cut and photographed 48 h after the initial infection.

[2] = system: Hyaloperonospora arabidopsidis (Hpa) isolate Noco2; experiment: Arabidopsis thaliana resistance to Hpa after Pip/NHP pre-treatment (symptoms, Trypan blue microscopy); assay type: in vivo; details: for symptomology of leaves (photographs): 7 days after inoculation; for disease development in the SA-deficient mutant: sid2 mutant
[3] = system: Pseudomonas syringae pv maculicola ES4326 (Psm lux); assay type: in vivo
[4] = 1° leaves pressure-infiltrated with 1 mM NHP 24 h before inoculation

O=C(O)C1CCCCN1O (stereo not shown) [NHP, 1-hydroxypiperidine-2-carboxylic acid]
Resistance effect after NHP pre-treatment ([1]; Nicotiana tabacum cv. Xanthi, Pseudomonas syringae pv. tabaci (DSM 1856)): Yes | disease symptoms (yellowing and wilting) of infiltrated 1° leaves [1]: almost absent | Resistance effect after NHP pre-treatment ([2]; Arabidopsis thaliana, Hyaloperonospora arabidopsidis): Yes | symptomology of leaves (photographs) ([2]; Col-0, ald1, and fmo1, 10 μmol via soil): completely symptom-free | development of oospores ([2]; Col-0, 10 μmol via soil, 7 dpi): completely inhibited | examined leaves that fully prohibited the formation of intercellular hyphae ([2]; Col-0, 10 μmol via soil, 7 dpi): About 70% | macroscopic mildew symptoms ([2]; Col-0, 10 μmol via soil, 7 dpi): completely free of mildew symptoms | occurrence/development of conidiophores on leaves ([2]; Col-0, 10 μmol via soil, 7 dpi): completely inhibited | disease development in the SA-deficient mutant ([2]; 10 μmol via soil): not able to fully prevent disease development | reduction of bacterial numbers, 2° leaves inoculated (systemic) [3, 4]: more than 15 fold | reduction of bacterial numbers, Psm lux infiltrated in the pre-treated 1° leaves (local) [3, 4]: about 8 fold | Resistance effect after NHP pre-treatment ([3]; Arabidopsis thaliana, Pseudomonas syringae): Yes | attenuation of Psm lux growth ([3]; Col-0, ald1, and fmo1 (all genotypes), 10 μmol via soil 1 d before inoculation, 60 hpi): at least one order of magnitude | chlorotic symptom development ([3]; Col-0, ald1, and fmo1, 10 μmol via soil, 72 hpi): lack of the chlorotic symptom development | reduction in bacterial numbers compared to mock-treated plants ([3]; Col-0, 10 μmol NHP via soil 1 day before infection, 54 h post inoculation): about 9 fold | reduction in bacterial numbers compared to mock-treated plants ([3]; Col-0, 10 μmol NHP via soil 3 days before infection, 54 h post inoculation): about 6 fold | reduction in bacterial numbers compared to mock-treated plants ([3]; Col-0, 10 μmol NHP via soil 7 days before infection, 54 h post inoculation): about 3 fold | further reduction of bacterial growth compared to plants treated with 10 μmol of NHP ([3]; Col-0, 100 μmol NHP per pot via soil, 54 h post inoculation): 2 fold | reduction of bacterial numbers compared to control plants ([3]; Col-0, 0.1 mM NHP (1 μmol/pot) via soil 24 h prior to Psm lux, 54 h post inoculation): about 2 fold | reduction of bacterial numbers compared to mock-treated plants ([3]; Col-0, 10 mM NHP (100 μmol per pot) via soil 24 h prior to Psm lux, 54 h post inoculation): about 20 fold | lower levels of bacteria in leaves compared to control plants ([3]; Col-0, 10 ml of 1 mM NHP (10 μmol per pot) via soil 24 h prior to Psm lux, 54 h post inoculation): about 11 fold | disease symptoms of leaves ([3]; Col-0, 10 ml of 1 mM NHP via soil 24 h prior to Psm lux): largely symptom-free | reduction of bacterial numbers in Psm lux-inoculated 1° leaves ([3]; Col-0, foliar spray of 1 mM NHP with 0.005% Silwet 24 h before inoculation, 54 h post inoculation): about 12 fold | difference in bacterial numbers between control and treated plants ([3]; Col-0 wild-type (experiment with sid2), 10 μmol via soil, 60 hpi): ten-fold difference | bacterial numbers in leaves lower than those of naive plants ([3]; SA-deficient sid2 mutant, 10 μmol via soil, 60 hpi): about 2.5 fold

O=C(O)[C@@H]1CCCCN1 [Pip, (S)-piperidine-2-carboxylic acid]
disease symptoms (yellowing and wilting) of infiltrated 1° leaves [1]: severely reduced | average length of intercellular hyphae growing inside leaves ([2]; Col-0, 10 μmol via soil 24 h before Hpa, 7 dpi): about 50 mm cm^−2 | development of oospores ([2]; Col-0, 10 μmol via soil, 7 dpi): fully prevented | intercellular hyphae closely encased by dead host cells (trailing necrosis) ([2]; Col-0, 10 μmol via soil, 7 dpi): about 60% | length of intercellular hyphae as share of the value for non-pretreated Col-0 plants ([2]; Col-0, 10 μmol via soil, 7 dpi): ~10% | macroscopic mildew symptoms ([2]; Col-0, 10 μmol via soil, 7 dpi): largely symptom-free | occurrence/development of conidiophores on leaves ([2]; Col-0, 10 μmol via soil, 7 dpi): greatly diminished | symptomology of leaves (photographs) ([2]; Col-0 and ald1, 10 μmol via soil): only sporadically show small areas of visible mildew symptoms | effect on the resistance of fmo1 to Hpa ([2]; fmo1 mutant, 10 μmol via soil): no effect | disease development in the SA-deficient mutant ([2]; 10 μmol via soil): not able to fully prevent disease development | bacterial multiplication in leaves of treated compared with control plants ([3]; Col-0 and ald1, 10 μmol via soil 1 d before Psm lux, 60 hpi): ten-fold lower | chlorotic leaf symptoms ([3]; Col-0 and ald1, 10 μmol via soil, 72 hpi): suppression of the development of chlorotic leaf symptoms
